Measured values: patent publication US5919934A, “Compounds, compositions, and methods for cancer imaging and therapy” (The George Washington University, priority 1997, dated 1999)
Like-named read-outs stand apart in the source and are kept apart here. Values belong to the compound of their own block, whether it stands above or below them.

How the values were obtained:
sigma receptors [1] = target: T1, sigma receptors (Homo sapiens, UniProt Q5BJF2); conditions: MCF-7 cells, Scatchard's analysis; cited from earlier work
T1 construct: MCF-7 breast tumor cells express sigma receptors; host or cells: MCF-7 cells
T1 sequence (Q5BJF2 whole entry): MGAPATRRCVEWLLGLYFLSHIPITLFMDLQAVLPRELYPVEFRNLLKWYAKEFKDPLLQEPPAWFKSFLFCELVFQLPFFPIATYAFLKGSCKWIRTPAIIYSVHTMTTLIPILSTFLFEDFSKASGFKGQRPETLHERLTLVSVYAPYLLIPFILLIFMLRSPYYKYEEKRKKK

sigma receptor = conditions: guinea pig brain; cited from earlier work
sigma receptors [2] = conditions: human breast and melanoma tumor cells; cited from earlier work
[3] = tested on: sigma-1 and sigma-2 receptors; assay: In-vivo blocking with BD1008 in Sprague-Dawley rats; conditions: 2 micromol BD1008 co-injected
Protocol: Animal biodistribution and blocking studies were performed in rats as follows. Sprague Dawley rats (200-250 g) were anesthetized with ketamine/xylazine and injected intravenously with ^99m Tc-EN6, XXIII, ([…]) in 0.2 ml saline containing up to 20% ethanol solution. At 0.5, 1, and 4 hr post-injection blood samples were drawn by cardiac puncture and the rats were sacrificed thereafter by cardiectomy while under ketamine/xylazine anesthesia. The organs of interest were then excised, blotted with tissue paper, weighed and the radioactivity counted. The % injected dose/organ was determined by comparison of the tissue radioactivity with suitably diluted, known quantity aliquots of the injected dose. […] The animals were sacrificed at 4 hr post-injection and the organs of interest were removed and handled as above.
S. B. Hellewell, et al., Rat liver and kidney contain high densities of sigma-1 and sigma-2 receptors: characterization by ligand binding and photoaffinity labeling, Eur. J. Pharmacol.--Mol. Pharmacol. Sect. 268:9-18 (1994), all of which are hereby incorporated by reference.

sigma receptors [4] = assay type: binding, human; conditions: T47D cells; for IC50: 37° C., 1 hr, against [Tc-99m]EN6, read-out: IC50 for inhibition of binding of [Tc-99m]EN6
Protocol: T47D human ductal breast carcinoma cells were purchased from ATCC, Rockville, Md. and cultured in serum supplemented medium DMEM containing 10% heat inactivated fetal bovine serum (GIBCO) at 37° C. The cells were adherent and split weekly in a 1:20 ratio using trypsin/EDTA (GIBCO). The cells were then transferred to 24 well plates and allowed to be adherent and confluent (about 0.5 million cells) or the cells were grown in T75 cell culture flasks and were detached when they were confluent using trypsin/EDTA (0.025%) or scraped with a cell scraper in DMEM.
Competition binding studies in human ductal breast cancer cells (T47D) were performed as follows. T47D cells were cultured in serum supplemented medium (RPMI-1640) containing 10% heat inactivated fetal bovine serum (GIBCO) at 37° C. The cells were adherent and split weekly in a 1:20 ratio using trypsin/EDTA (GIBCO). The cells were scraped using a cell scraper from T75 culture flasks and centrifuged in a Sorvall 6000B centrifuge at a speed of 4000 rpm. The growth medium was removed and the cell pellet was resuspended in […] serum free media.
The affinity of compounds for sites labeled by [Tc-99m]EN6 in human breast cancer cells was determined by heterologous in-vitro competitive binding assays in whole cells. The following method was used: A small aliquot of the cell suspension (100 μL) was incubated with [Tc-99m]EN6 and varying concentrations to (10^-4 to 10^-12 M) of arylethylenediamines keeping a total volume 1.0 mL constant. The cells were incubated at 37° C. for 1 hr and subsequently filtered through a Brandel Cell harvester (Brandel, Gaithersburg, Md.) and washed with de-ionized cold water. The radioactivity associated with the cells on filters was counted on a Beckman (DP 5500) Gamma Counter.
The data was analyzed with the iterative nonlinear least square curve fitting program GraphPAD Inplot (Graph PAD Software, San Diego, Calif.). The Cheng-Prussoff equation was then used to convert IC50 values to apparent K1 values.

sigma-2 sites = target: T2, sigma-2 sites (Rattus norvegicus, UniProt Q5U3Y7); assay: Sigma-2 binding in rat liver membrane preparation against [^3 H]DTG in the presence of dextrallorphan
T2 construct: sigma-2 sites in rat liver membrane preparation; from tissue; host or cells: rat liver membranes
T2 sequence (Q5U3Y7 1-176): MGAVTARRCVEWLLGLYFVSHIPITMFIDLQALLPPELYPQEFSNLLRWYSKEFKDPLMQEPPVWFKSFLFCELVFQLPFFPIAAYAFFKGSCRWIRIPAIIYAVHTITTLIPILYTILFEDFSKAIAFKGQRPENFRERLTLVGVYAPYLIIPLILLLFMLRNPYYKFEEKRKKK

[5] = tested on: non-melanoma cells in the liver and lung; conditions: cited from earlier work
sigma-1 sites = target: T3, sigma-1 sites (Cavia porcellus, UniProt Q60492); assay: Sigma-1 binding in guinea pig brain against [^3 H]-(+)-pentazocine
T3 construct: sigma-1 sites in guinea pig brain; from tissue; host or cells: guinea pig brain
T3 sequence (Q60492 whole entry): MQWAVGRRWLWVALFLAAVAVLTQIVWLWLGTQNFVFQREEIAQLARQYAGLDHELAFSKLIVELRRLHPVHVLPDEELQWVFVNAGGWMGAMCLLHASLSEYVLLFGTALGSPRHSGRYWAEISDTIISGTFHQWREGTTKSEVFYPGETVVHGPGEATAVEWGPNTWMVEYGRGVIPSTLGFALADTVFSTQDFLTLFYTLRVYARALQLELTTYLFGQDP

SMILES: O=C(NC1CCN(Cc2ccccc2)CC1)c1ccc([125I])cc1 [4-[^125 I]-4-(N-benzylpiperidin-4-yl)-4-iodobenzamide]
receptors per cell (sigma receptors [1]): approximately a million

SMILES: CN(CCc1ccc([125I])cc1)CCN1CCCCC1 [4-[^125 I]PEMP, [^125 I]N-[2-(4-iodophenyl)ethyl]-N-methyl-2-(1-piperidinyl)ethylamine]
inhibition binding isotherms (sigma receptor): consistent with sigma receptor pharmacology
specific binding to the sigma receptors (sigma receptors [2]): very high specific binding

inhibition of [Tc-99m]EN6 binding (sigma receptors [4]): dose-dependent inhibition of binding
IC50 (sigma receptors [4]): 47 ± 2 nM
Ki (sigma-2 sites; rat liver membrane, against [^3 H]DTG in the presence of dextrallorphan, read-out: Ki for sigma-2 sites): 8.1 ± 2.2 nM
SMILES: CN(CCc1ccc(Cl)c(Cl)c1)CCN1CCCC1 [BD1008]
inhibition of binding of ^99m Tc-complex in the kidneys ([3]; kidneys, 4 hr post-i.v. injection): about 60%
reduction of radioactivity in liver ([3]; liver, 4 hr post-injection): 34%
reduction of radioactivity in lungs ([3]; lungs, 4 hr post-injection): 48%

SMILES: CCN(CC)CCNC(=O)c1ccc(I)cc1 [IDAB, N-(diethylaminoethyl)4-iodobenzamide]
uptake by non-melanoma cells [5]: taken up in high concentrations

SMILES: CN(CCc1ccc(I)cc1)CCN1CCCCC1 [IPEMP]
inhibition of [Tc-99m]EN6 binding (sigma receptors [4]): dose-dependent inhibition of binding
IC50 (sigma receptors [4]): 59 ± 5 nM
Ki (sigma-2 sites): 15.2 ± 2.35 nM
Ki (sigma-1 sites): 0.82 ± 0.13 nM
